Residues, ends and D or L forms follow the SMILES beside them.
Experiments:
[1] = Forward looking example: Metabolic Syndrome patient with chronic environmental antigen stimulation; assay type: in vivo, human; settings: sublingual once every two weeks, with diet, exercise, ACE Inhibitor, Fluconazole; over a year
From the text: The further application of the instant invention is illustrated by the following forward looking examples.
• A young person presents to their physician, on annual physical examination, with a weight gain of 50 pounds, is found to have high blood pressure, and reports vaginal pruritis. Over the past few years, they have lived in an area of major traffic congestion (near an oil refinery). The physician does a physical examination and discovers unusual black pigmented areas in their neck creases (acanthosis nigricans) and orders laboratory tests, including fasting and 2-hour blood glucose, serum triglycerides, serum insulin, a cholesterol profile, C-Reactive Protein, serum fibrinogen, and a vaginal smear for candidiasis. • They are found to have impaired glucose tolerance, elevated serum triglycerides, low HDL and high […] and high C-Reactive Protein and fibrinogen levels. Their vaginal smear is positive for candida albicans. • The physician knows that they are seeing a case of the Metabolic Syndrome which progresses to Diabetes Mellitus and Coronary Heart Disease. They prescribe a weight reduction diabetic diet, physical exercise, an ACE Inhibitor, and Fluconazole. […] They continue their diet and physical exercise and loses weight. They require less high blood pressure medication. The physician continues to monitor their cell-mediated immune function, blood glucose levels, lipid profile, and measures of inflammation, and adjusts their medications appropriately. • The patient continues to lose weight to reach their target weight, blood pressure is controlled, blood glucose is normalized, and their risk of diabetes mellitus and coronary heart disease is reduced.

[2] = FEBS LET. 383:18 (1996); cited from earlier work

Row | SMILES | Blood glucose [1] | C-Reactive Protein [1] | Cholesterol level [1] | Immunological activity in vitro [2]
1 | N[C@@H](Cc1ccc(O)cc1)C(=O)NCC(=O)O [YG, L-tyrosylglycine] | changes toward normal | reduced | reduced | immunologically active
2 | N[C@@H](Cc1ccc(O)cc1)C(=O)NCC(=O)NCC(=O)O [YGG, L-tyrosylglycylglycine] (H-Tyr-Gly-Gly-OH) |  |  |  | immunologically active

Reference: US7632818B2, “Method for treating conditions associated with the Metabolic Syndrome (Syndrome X)” (priority 2003, dated 2009)
